Data published in patent publication US12233060B2, “Inhibitors of Ataxia-Telangiectasia Mutated and Rad3-related protein kinase (ATR) for use in methods of treating cancer” (THE INSTITUTE OF CANCER RESEARCH: ROYAL CANCER HOSPITAL, priority 2016, dated 2025).

How the values were obtained:
[1] = system: HCT116 ARID1A+/+ and ARID1A−/− cells; experiment: γH2AX western blot; assay type: cell-based, human; conditions: VX-970 0.5 uM; ARID1A−/− vs ARID1A+/+
Description: FIG. 5. ATRi effect on cell cycle progression, chromosomal instability, DNA damage and apoptosis. A. Barchart illustrating G2/M fraction in HCT116 ARID1A^+/+ and ARID1A^−/− cells synchronized in G1/early S phase by double thymidine block and released into fresh media containing DMSO or VX-970 (500 nM). The percentage of cells in G2/M was measured by FACS following PI staining. […] Cells were stained with DAPI. A minimum of 50 anaphases were scored in 3 biological replicate experiments. *p=0.023, Student's t-test. C. Bar chart illustrating frequency of anaphase bridges in TOV21G cells exposed to VX-970 (0.5 uM) or DMSO for 8 hours prior to fixation. Experiment performed as for (B). p=0.006 Student's t-test. D. Mitotic spread images from HCT116 ARID1A^+/+ and ARID1A^−/− cells following exposure to either DMSO or VX-970 (1 uM). Scale bar represents 20 um. E. Bar chart illustrating extent of chromosomal abnormalities in HCT116 ARID1A^+/+ and ARID1A^−/− cells exposed to VX-970 (1 uM). *p<0.05, Student's t-test. F. Western blot illustrating γH2AX in HCT116 ARID1A^+/+ and ARID1A^−/− cells exposed to VX-970 (0.5 uM) for the indicated time prior to cell lyses. G. Bar chart illustrating apoptotic fraction in cells exposed to increasing concentrations of VX-970 for 24 hours. Experiment as per FIG. 3I. H. Western blot illustrating PARP cleavage in HCT116 ARID1A^+/+ and ARID1A^−/− cells exposed to VX-970. […]

[2] = system: TOV21G (ARID1A mutant) and RMG1 (ARID1A wildtype) cells; experiment: Five-day dose response in OCCC cell lines TOV21G and RMG1; assay type: cell-based, human; conditions: 5 days exposure
Description: FIG. 3. In vivo ARID1A/ATR synthetic lethality. A. Schematic of VX-970 therapy experiment in mice bearing established HCT116 ARID1A^+/+ and ARID1A^−/− xenografts. Cells were inoculated subcutaneously into nude mice and tumors allowed to establish for 10 days. Mice were then randomized to treatment regimens of either VX-970 (60 mg/kg, 4× weekly by oral gavage) or vehicle. Mice were then treated for a subsequent 40 days. Tumor volume was monitored twice weekly. B. Relative tumor volume plot from (A) showing efficacy of VX-970 and selectivity for ARID1A^−/− xenografts* p=0.024, ANOVA. C. Schematic of tumor incidence experiment in mice with non-established HCT116 ARID1A^+/+ and ARID1A^−/− xenografts. Mice were inoculated with cells as before, randomized and then treated with VX-970. […] Tumor volume was monitored twice weekly and overall tumour incidence was assessed 40 days later. […] PARP-1, cleaved PARP-1 (85 kDa fragment) and tubulin were detected by western blot. […] Caspase3/7 activity was assessed using Caspase-Glo and total cellular viability was estimated using CellTitre-Glo. Luminescence ratios for Caspase-Glo (i.e. apoptotic cells) and CellTitre-Glo (ie viable cells) was determined for each dose and normalized to DMSO treated samples. *Student's t-test, p<0.05. […]
Short-term survival assays were performed in 384-well plates. […] Colonies were counted manually. […]

Question: What does the source list for CNCc1ccc(-c2cc(-c3nc(-c4ccc(S(=O)(=O)C(C)C)cc4)cnc3N)on2)cc1 [VX-970, 5-[4-(Isopropylsulfonyl)phenyl]-3-(3-{4-[(methylamino)methyl]phenyl}-1,2-oxazol-5-yl)-2-pyrazinamine]?
Answer: γH2AX induction [1]: more pronounced; sensitivity of TOV21G vs RMG1 [2]: more sensitive to both VE-821 and VX-970
